Source: PubChem BioAssay (NCI)
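How tested: cells in 96-well plates exposed to compound for 48 hours at five concentrations. TGI is the concentration that stops growth completely.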

What was measured:
Experiment in all cases: NCI-60 cell line screen, 48 h
786-0 renal = test system: 786-0 renal
A498 renal = test system: A498 renal
A549 NSCLC = test system: A549 NSCLC
ACHN renal = test system: ACHN renal
BT-549 breast = test system: BT-549 breast
CAKI-1 renal = test system: CAKI-1 renal
COLO 205 colon = test system: COLO 205 colon
DU-145 prostate = test system: DU-145 prostate
EKVX NSCLC = test system: EKVX NSCLC
HCT-116 colon = test system: HCT-116 colon
HCT-15 colon = test system: HCT-15 colon
HL-60(TB) leukemia = test system: HL-60(TB) leukemia
HOP-62 NSCLC = test system: HOP-62 NSCLC
HT29 colon = test system: HT29 colon
IGROV1 ovarian = test system: IGROV1 ovarian
K-562 leukemia = test system: K-562 leukemia
KM12 colon = test system: KM12 colon
LOX IMVI melanoma = test system: LOX IMVI melanoma
M14 melanoma = test system: M14 melanoma
MALME-3M melanoma = test system: MALME-3M melanoma
MCF7 breast = test system: MCF7 breast
MDA-MB-231 breast = test system: MDA-MB-231 breast
MDA-N = test system: MDA-N
MOLT-4 leukemia = test system: MOLT-4 leukemia
NCI-H226 lung = test system: NCI-H226 lung
NCI-H23 lung = test system: NCI-H23 lung
NCI-H460 lung = test system: NCI-H460 lung
NCI/ADR-RES ovarian = test system: NCI/ADR-RES ovarian
OVCAR-3 ovarian = test system: OVCAR-3 ovarian
OVCAR-4 ovarian = test system: OVCAR-4 ovarian
OVCAR-5 ovarian = test system: OVCAR-5 ovarian
OVCAR-8 ovarian = test system: OVCAR-8 ovarian
PC-3 prostate = test system: PC-3 prostate
RPMI-8226 leukemia = test system: RPMI-8226 leukemia
RXF 393 renal = test system: RXF 393 renal
SF-268 CNS = test system: SF-268 CNS
SF-295 CNS = test system: SF-295 CNS
SF-539 CNS = test system: SF-539 CNS
SK-MEL-2 melanoma = test system: SK-MEL-2 melanoma
SK-MEL-28 melanoma = test system: SK-MEL-28 melanoma
SK-MEL-5 melanoma = test system: SK-MEL-5 melanoma
SK-OV-3 ovarian = test system: SK-OV-3 ovarian
SN12C renal = test system: SN12C renal
SNB-19 CNS = test system: SNB-19 CNS
SNB-75 CNS = test system: SNB-75 CNS
SR leukemia = test system: SR leukemia
SW-620 colon = test system: SW-620 colon
T-47D breast = test system: T-47D breast
TK-10 renal = test system: TK-10 renal
U251 CNS = test system: U251 CNS
UACC-257 melanoma = test system: UACC-257 melanoma
UACC-62 melanoma = test system: UACC-62 melanoma
UO-31 renal = test system: UO-31 renal
CCRF-CEM leukemia = test system: CCRF-CEM leukemia
HCC-2998 colon = test system: HCC-2998 colon
HOP-92 NSCLC = test system: HOP-92 NSCLC
HS 578T breast = test system: HS 578T breast
NCI-H522 lung = test system: NCI-H522 lung

COC(=O)C1=COC(OC2OC(CO)C(O)C(O)C2O)C2C3CN4CCc5c([nH]c6ccccc56)C4(CC12)O3 (stereo unspecified) showed a TGI (786-0 renal) of over 100 µM, a TGI (A498 renal) of over 100 µM and a TGI (A549 NSCLC) of over 100 µM. It also gave a TGI (ACHN renal) of over 100 µM, a TGI (BT-549 breast) of over 100 µM and a TGI (CAKI-1 renal) of over 100 µM. The TGI (COLO 205 colon) was over 100 µM, the TGI (DU-145 prostate) was over 100 µM and the TGI (EKVX NSCLC) was over 100 µM. It also gave a TGI (HCT-116 colon) of over 100 µM, a TGI (HCT-15 colon) of over 100 µM and a TGI (HL-60(TB) leukemia) of over 100 µM. For the same compound, the TGI (HOP-62 NSCLC) was over 100 µM, the TGI (HT29 colon) was over 100 µM and the TGI (IGROV1 ovarian) was over 100 µM. The TGI (K-562 leukemia) was over 100 µM, the TGI (KM12 colon) was over 100 µM and the TGI (LOX IMVI melanoma) was over 100 µM. The TGI (M14 melanoma) was over 100 µM, the TGI (MALME-3M melanoma) was over 100 µM and the TGI (MCF7 breast) was over 100 µM. For the same compound, the TGI (MDA-MB-231 breast) was over 100 µM, the TGI (MDA-N) was over 100 µM and the TGI (MOLT-4 leukemia) was over 100 µM. For the same compound, the TGI (NCI-H226 lung) was over 100 µM, the TGI (NCI-H23 lung) was over 100 µM and the TGI (NCI-H460 lung) was over 100 µM. For the same compound, the TGI (NCI/ADR-RES ovarian) was over 100 µM, the TGI (OVCAR-3 ovarian) was over 100 µM and the TGI (OVCAR-4 ovarian) was over 100 µM. The TGI (OVCAR-5 ovarian) was over 100 µM, the TGI (OVCAR-8 ovarian) was over 100 µM and the TGI (PC-3 prostate) was over 100 µM. For the same compound, the TGI (RPMI-8226 leukemia) was over 100 µM, the TGI (RXF 393 renal) was over 100 µM and the TGI (SF-268 CNS) was 91.1 µM. It also gave a TGI (SF-295 CNS) of over 100 µM, a TGI (SF-539 CNS) of over 100 µM and a TGI (SK-MEL-2 melanoma) of over 100 µM. It also gave a TGI (SK-MEL-28 melanoma) of over 100 µM, a TGI (SK-MEL-5 melanoma) of over 100 µM and a TGI (SK-OV-3 ovarian) of over 100 µM. It also gave a TGI (SN12C renal) of over 100 µM, a TGI (SNB-19 CNS) of over 100 µM and a TGI (SNB-75 CNS) of over 100 µM. For the same compound, the TGI (SR leukemia) was over 100 µM, the TGI (SW-620 colon) was over 100 µM and the TGI (T-47D breast) was over 100 µM. The TGI (TK-10 renal) was over 100 µM, the TGI (U251 CNS) was over 100 µM and the TGI (UACC-257 melanoma) was over 100 µM. The TGI (UACC-62 melanoma) was over 100 µM and the TGI (UO-31 renal) was over 100 µM.
For CC(=O)Oc1ccc2cc(Oc3ccc(Cl)c(Cl)c3)c(=O)oc2c1, the TGI (786-0 renal) was 52.4 µM, the TGI (A498 renal) was 65.8 µM and the TGI (A549 NSCLC) was 94.8 µM. It also gave a TGI (ACHN renal) of 72.6 µM, a TGI (BT-549 breast) of 34.4 µM and a TGI (CAKI-1 renal) of 58.7 µM. For the same compound, the TGI (CCRF-CEM leukemia) was over 100 µM, the TGI (DU-145 prostate) was over 100 µM and the TGI (EKVX NSCLC) was 80.8 µM. For the same compound, the TGI (HCC-2998 colon) was 39.6 µM, the TGI (HCT-116 colon) was 39.9 µM and the TGI (HCT-15 colon) was 53.8 µM. The TGI (HL-60(TB) leukemia) was over 100 µM, the TGI (HOP-62 NSCLC) was 50.6 µM and the TGI (HOP-92 NSCLC) was 78.8 µM. For the same compound, the TGI (HS 578T breast) was over 100 µM, the TGI (HT29 colon) was over 100 µM and the TGI (IGROV1 ovarian) was over 100 µM. It also gave a TGI (K-562 leukemia) of 69.6 µM, a TGI (KM12 colon) of 48.7 µM and a TGI (LOX IMVI melanoma) of 59.1 µM. It also gave a TGI (M14 melanoma) of over 100 µM, a TGI (MALME-3M melanoma) of 94.1 µM and a TGI (MCF7 breast) of 80.6 µM. The TGI (MDA-MB-231 breast) was over 100 µM, the TGI (MDA-N) was 56.6 µM and the TGI (MOLT-4 leukemia) was over 100 µM. It also gave a TGI (NCI-H226 lung) of 82.9 µM, a TGI (NCI-H23 lung) of over 100 µM and a TGI (NCI-H460 lung) of 66 µM. It also gave a TGI (NCI-H522 lung) of 46.5 µM, a TGI (OVCAR-3 ovarian) of 50 µM and a TGI (OVCAR-4 ovarian) of over 100 µM. The TGI (OVCAR-5 ovarian) was over 100 µM, the TGI (OVCAR-8 ovarian) was 69.5 µM and the TGI (PC-3 prostate) was 53.3 µM. For the same compound, the TGI (RPMI-8226 leukemia) was over 100 µM, the TGI (RXF 393 renal) was 65.9 µM and the TGI (SF-268 CNS) was over 100 µM. For the same compound, the TGI (SF-295 CNS) was over 100 µM, the TGI (SF-539 CNS) was 46.8 µM and the TGI (SK-MEL-28 melanoma) was 79.3 µM. It also gave a TGI (SK-MEL-5 melanoma) of 35.5 µM, a TGI (SN12C renal) of 54.1 µM and a TGI (SNB-19 CNS) of over 100 µM. The TGI (SNB-75 CNS) was over 100 µM, the TGI (SR leukemia) was over 100 µM and the TGI (SW-620 colon) was over 100 µM. For the same compound, the TGI (T-47D breast) was 99.3 µM, the TGI (TK-10 renal) was 79.2 µM and the TGI (U251 CNS) was 41.5 µM. The TGI (UACC-257 melanoma) was 85.1 µM and the TGI (UO-31 renal) was 51 µM.
